Laboratory results taken from US9115092B2, “Substituted quinazoline and pyrido-pyrimidine derivatives” (Asana Biosciences, LLC, priority 2010, dated 2015).

Key:
PC3 cells = assay: XTT assay for cell viability, PC3 cells; format: cell-based, human
Procedure, shortened: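 PC3 cells seeded at 1000 cells/well, grown 24 h, then exposed to serial dilutions of compound for 96 h. Viability read by XTT dye at 37° C, absorbance 465 nm. EC50 from sigmoidal dose-response fit.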

mTOR kinase = molecular target: T1, mTOR kinase (Homo sapiens, UniProt P42345); assay: mTOR kinase TR-FRET assay; format: biochemical; details: read-out: mTO R
T1 construct: purchased Millipore, USA
Procedure, shortened: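 Compounds preincubated 60 min with mTOR (5 ng) in HEPES pH 7.5, EGTA, MnCl2; ULight-p70 S6K Thr389 peptide (50 nM) and ATP (20 μM) then added, 60 min at room temperature. EDTA-stopped, Eu-anti-phospho antibody detection by TR-FRET (665/615 nm); IC50 from variable-slope sigmoidal fit.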

[1] = tested on: pS6RP(S235/236), PC3 cells; assay: In-cell Western assay, pS6RP(S235/236) in PC3 cells; format: cell-based, human
Method: Cells from human prostate cancer cell line PC3 (American Type Culture Collection (ATCC), Manassas, Va. 20108 USA) were seeded at an optimal density of 22,000 cell/well in 96-well plates containing Ham's F12K medium (90 μL) and incubated overnight. The compound dilutions were carried out in 100% DMSO followed by a dilution in the medium. Test compounds were added in serial dilutions to the wells and incubated for 2 h. The cells were washed and fixed with 4% paraformaldehyde. After incubation at room temperature for 1 h in the dark, blocking was done for 2 h at room temperature. Primary antibodies for phosphorylated (p) AKT(5473) (phosphorylated at serine 473), pAKT(T308) (phosphorylated at threonine 308) and for pS6RP(S235/236) (phosphorylated at serine 235/236) (commercially available from Cell Signaling Technology®, whose protocol was followed for the in-cell western assay, were diluted to the required concentration and added to the corresponding wells followed by overnight incubation at 4° C. Eu-labeled rabbit (PE) (Perkin-Elmer USA catalog #AD0106) secondary antibody was added and incubated for 2 h at room temperature. Delfia® enhancement solution (cat #1244-105, Perkin Elmer USA) was subsequently added to the plate before taking the reading at 615 nm with excitation wavelength of 340 nm, after which 0.5 μg/mL of Hoechst® 33258 dye (Catalog #86140-5, Sigma) was added to the plate and fluorescence emission was read at 460 nm with 355 nm excitation, to evaluate the correction factor. IC50 values were calculated using a sigmoidal dose-response curve fit in GraphPad Prism® v5 software.

[2] = molecular target: T2, PI3Kα (wild-type), P110/P85α (Homo sapiens, UniProt P42336); assay: PI3 Kinase TR-FRET assay, PI3Kα (wild-type); format: biochemical
T2 construct: made in house; host or cells: SF9 insect cells
Procedure, shortened: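 Sf9-expressed His-purified P110/P85α (5 ng) preincubated 60 min RT with compound and PIP2 in buffer with 40 mM MgCl2, 5 mM DTT; reaction started with ATP (PIP2 and ATP both 10 μM), 30 min RT. PIP3 detected by TR-FRET displacement, 665/615 nm ratio; IC50 from dose-response curves.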

[3] = Homo sapiens, PC-3, cell viability
[4] = Homo sapiens, PC-3, In-cell Western

T2 sequence (P42336 whole entry): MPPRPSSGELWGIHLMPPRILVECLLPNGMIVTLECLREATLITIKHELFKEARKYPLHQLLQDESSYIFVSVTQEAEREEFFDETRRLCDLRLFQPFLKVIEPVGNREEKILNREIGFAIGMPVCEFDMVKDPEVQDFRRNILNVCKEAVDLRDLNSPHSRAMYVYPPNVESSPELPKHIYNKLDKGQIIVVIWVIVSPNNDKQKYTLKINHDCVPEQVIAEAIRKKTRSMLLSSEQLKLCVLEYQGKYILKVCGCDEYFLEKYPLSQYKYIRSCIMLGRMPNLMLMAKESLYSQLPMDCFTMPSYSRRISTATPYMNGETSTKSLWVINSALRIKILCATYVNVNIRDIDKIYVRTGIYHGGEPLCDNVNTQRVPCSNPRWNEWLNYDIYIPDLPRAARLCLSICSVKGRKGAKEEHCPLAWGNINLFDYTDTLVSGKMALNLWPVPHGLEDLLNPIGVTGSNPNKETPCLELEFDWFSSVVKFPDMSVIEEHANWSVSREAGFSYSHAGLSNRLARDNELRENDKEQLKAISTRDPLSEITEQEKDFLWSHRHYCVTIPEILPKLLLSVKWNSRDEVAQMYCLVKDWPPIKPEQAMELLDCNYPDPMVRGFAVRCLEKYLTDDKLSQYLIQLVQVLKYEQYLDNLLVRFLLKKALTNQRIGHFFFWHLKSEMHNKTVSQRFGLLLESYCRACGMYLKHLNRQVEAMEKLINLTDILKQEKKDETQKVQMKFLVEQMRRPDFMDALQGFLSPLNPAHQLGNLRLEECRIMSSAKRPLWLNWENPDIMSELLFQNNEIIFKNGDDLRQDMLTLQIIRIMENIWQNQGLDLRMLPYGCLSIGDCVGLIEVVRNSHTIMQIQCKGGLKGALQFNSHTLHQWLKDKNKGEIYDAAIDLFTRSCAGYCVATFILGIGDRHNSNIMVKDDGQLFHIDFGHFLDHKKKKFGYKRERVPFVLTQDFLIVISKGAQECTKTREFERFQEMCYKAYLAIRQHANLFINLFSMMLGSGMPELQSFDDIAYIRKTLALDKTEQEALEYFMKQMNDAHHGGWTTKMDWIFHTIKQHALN
T2 sequence (P27986 whole entry partner): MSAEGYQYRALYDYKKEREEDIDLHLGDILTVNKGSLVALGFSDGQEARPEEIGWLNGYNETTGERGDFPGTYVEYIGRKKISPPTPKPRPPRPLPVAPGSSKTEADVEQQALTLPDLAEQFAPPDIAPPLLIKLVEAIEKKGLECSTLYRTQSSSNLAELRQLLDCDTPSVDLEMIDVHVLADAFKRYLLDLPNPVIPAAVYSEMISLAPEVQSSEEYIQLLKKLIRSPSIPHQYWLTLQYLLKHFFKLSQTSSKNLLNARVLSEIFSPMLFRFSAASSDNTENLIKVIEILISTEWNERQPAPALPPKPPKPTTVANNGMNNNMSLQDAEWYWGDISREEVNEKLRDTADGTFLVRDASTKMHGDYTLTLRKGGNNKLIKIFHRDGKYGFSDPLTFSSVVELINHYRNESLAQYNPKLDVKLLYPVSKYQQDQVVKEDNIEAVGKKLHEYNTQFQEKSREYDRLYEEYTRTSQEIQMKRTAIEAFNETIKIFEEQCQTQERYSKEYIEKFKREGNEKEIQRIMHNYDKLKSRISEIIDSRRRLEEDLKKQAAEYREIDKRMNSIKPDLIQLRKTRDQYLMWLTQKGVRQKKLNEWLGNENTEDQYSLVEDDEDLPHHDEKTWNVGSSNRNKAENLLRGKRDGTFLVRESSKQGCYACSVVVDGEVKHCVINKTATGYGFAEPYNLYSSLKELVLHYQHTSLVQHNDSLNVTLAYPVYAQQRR

| IC50 (PC3 cells; [3]) [µM] | IC50 (mTOR kinase) [µM] | IC50 [1, 4] [µM] | IC50 [2] [µM] | IC50 (PC3 cells; cell viability) [µM] | IC50 ([1]; In-cell Western) [µM] | Compound |
| --- | --- | --- | --- | --- | --- | --- |
| 0.201 to 10 | < 0.05 | 0.201 to 10 | 0.05 to 0.2 | – | – | Cc1noc(C)c1-c1ccc2c(N3CCOCC3)nc(-c3ccc(NC(=O)Nc4ccc(C(=O)N5CCC(N(C)C)C5)cc4)cc3)nc2c1 (stereo in doubt) [Example 220, (S)-1-(4-(3-(dimethylamino)pyrrolidine-1-carbonyl)phenyl)-3-(4-(7-(3,5-dimethylisoxazol-4-yl)-4-morpholino-quinazolin-2-yl)phenyl)urea] |
| 0.201 to 10 | < 0.05 | 0.201 to 10 | 0.05 to 0.2 | – | – | CN(C)C1CCN(C(=O)c2ccc(NC(=O)Nc3ccc(-c4nc(N5CCOCC5)c5ccc(C(C)(C)O)cc5n4)cc3)cc2)C1 (stereo in doubt) [Example 289, (S)-1-(4-(3-(dimethylamino)pyrrolidine-1-carbonyl)phenyl)-3-(4-(7-(2-hydroxypropan-2-yl)-4-morpholino-quinazolin-2-yl)phenyl)urea] |
| 0.201 to 10 | < 0.05 | 0.201 to 10 | < 0.05 | – | – | CN(C)C(=O)c1ccc(NC(=O)Nc2ccc(-c3nc(N4CCOCC4)c4ccc(C(C)(C)O)cc4n3)cc2)cc1 [Example 16, 4-(3-(4-(7-(2-hydroxypropan-2-yl)-4-morpholino-quinazolin-2-yl)phenyl)ureido)-N,N-dimethyl-benzamide] |
| 0.1 to 0.5 | < 0.05 | < 0.1 | 0.05 to 0.2 | – | – | CN(C)C(=O)c1ccc(NC(=O)Nc2ccc(-c3nc(N4CCOCC4)c4cccc(-c5cccnc5F)c4n3)cc2)cc1 [Example 40, 4-(3-{4-[8-(2-fluoro-pyridin-3-yl)-4-morpholin-4-yl-quinazolin-2-yl]-phenyl}-ureido)-N,N-dimethyl-benzamide] |
| 0.1 to 0.5 | 0.05 to 0.2 | < 0.1 | < 0.05 | – | – | CN(C)C(=O)c1ccc(NC(=O)Nc2ccc(-c3nc(N4CCOCC4)c4ccc(-c5cccc(O)c5)cc4n3)cc2)cc1 [Example 41, 4-(3-{4-[7-(3-hydroxy-phenyl)-4-morpholin-4-yl-quinazolin-2-yl]-phenyl}-ureido)-N,N-dimethyl-benzamide] |
| 0.1 to 0.5 | < 0.05 | < 0.1 | < 0.05 | – | – | CN(C)C(=O)c1ccc(NC(=O)Nc2ccc(-c3nc(N4CCOCC4)c4ccc(-c5cnn(C)c5)cc4n3)cn2)cc1 [Example 55, N,N-dimethyl-4-(3-{5-[7-(1-methyl-1H-pyrazol-4-yl)-4-morpholin-4-yl-quinazolin-2-yl]-pyridin-2-yl}-ureido)-benzamide] |
| 0.1 to 0.5 | < 0.05 | < 0.1 | < 0.05 | – | – | Cc1ccncc1-c1ccc2c(N3CCOCC3)nc(-c3ccc(NC(=O)Nc4ccc(C(=O)N(C)C)cc4)cc3)nc2c1 [Example 62, N,N-dimethyl-4-(3-{4-[7-(4-methyl-pyridin-3-yl)-4-morpholin-4-yl-quinazolin-2-yl]-phenyl}-ureido)-benzamide] |
| 0.1 to 0.5 | < 0.05 | 0.1 to 0.5 | < 0.05 | – | – | Cc1ccc(-c2ccc3c(N4CCOCC4)nc(-c4ccc(NC(=O)Nc5ccc(C(=O)N(C)CCN(C)C)cc5)cc4)nc3c2)o1 [Example 63, N-(2-dimethylamino-ethyl)-N-methyl-4-(3-{4-[7-(5-methyl-furan-2-yl)-4-morpholin-4-yl-quinazolin-2-yl]-phenyl}-ureido)-benzamide] |
| 0.1 to 0.5 | < 0.05 | < 0.1 | < 0.05 | – | – | CN(C)C(=O)c1ccc(NC(=O)Nc2ccc(-c3nc(N4CCOCC4)c4ccc(-c5ccncc5F)cc4n3)cc2)cc1 [Example 65, 4-(3-{4-[7-(3-fluoro-pyridin-4-yl)-4-morpholin-4-yl-quinazolin-2-yl]-phenyl}-ureido)-N,N-dimethyl-benzamide] |
| 0.1 to 0.5 | < 0.05 | < 0.1 | < 0.05 | – | – | CC(=O)Nc1cncc(-c2ccc3c(N4CCOCC4)nc(-c4ccc(NC(=O)Nc5ccc(C(=O)N(C)C)cc5)cc4)nc3c2)c1 [Example 66, 4-(3-{4-[7-(5-acetylamino-pyridin-3-yl)-4-morpholin-4-yl-quinazolin-2-yl]-phenyl}-ureido)-N,N-dimethyl-benzamide] |
| 0.1 to 0.5 | < 0.05 | < 0.1 | < 0.05 | – | – | CN1CCN(C(=O)c2ccc(NC(=O)Nc3ccc(-c4nc(N5CCOCC5)c5ccc(-c6ccncc6)cc5n4)cc3)cc2)CC1 [Example 69, 1-[4-(4-methyl-piperazine-1-carbonyl)-phenyl]-3-[4-(4-morpholin-4-yl-7-pyridin-4-yl-quinazolin-2-yl)-phenyl]-urea] |
| 0.1 to 0.5 | < 0.05 | < 0.1 | < 0.05 | – | – | CN(C)CCN(C)C(=O)c1ccc(NC(=O)Nc2ccc(-c3nc(N4CCOCC4)c4ccc(-c5ccncc5)cc4n3)cc2)cc1 [Example 72, N-(2-dimethylamino-ethyl)-N-methyl-4-{3-[4-(4-morpholin-4-yl-7-pyridin-4-yl-quinazolin-2-yl)-phenyl]-ureido}-benzamide] |
| – | < 0.05 | – | < 0.05 | < 0.1 | < 0.1 | CN(C)C(=O)c1ccc(NC(=O)Nc2ccc(-c3nc(N4CCOCC4)c4ccc(-c5ccco5)cc4n3)cc2)cc1 [Example 80, N,N-dimethyl-4-(3-{4-[7-(furan-2-yl)-4-morpholin-4-yl-quinazolin-2-yl]-phenyl}-ureido)-benzamide] |
| 0.501 to 5 | < 0.05 | < 0.1 | < 0.05 | – | – | CN(C)C1CCN(C(=O)c2ccc(NC(=O)Nc3ccc(-c4nc(N5CCOCC5)c5ccc(-c6cccnc6F)cc5n4)cn3)cc2)CC1 [Example 81, 1-(4-(4-(dimethylamino)piperidine-1-carbonyl)phenyl)-3-(5-(7-(2-fluoropyridin-3-yl)-4-morpholine-quinazolin-2-yl)pyridin-2-yl)urea] |
| 0.201 to 10 | < 0.05 | 0.201 to 10 | 0.05 to 0.2 | – | – | CN(C)CCn1cc(-c2ccc3c(N4CCOCC4)nc(-c4ccc(NC(=O)Nc5ccc(C(=O)N(C)C)cc5)cc4)nc3c2)cn1 [Example 83, 4-(3-(4-(7-(1-(2-(dimethylamino)ethyl)-1H-pyrazol-4-yl)-4-morpholino-quinazolin-2-yl)phenyl)ureido)-N,N-dimethyl-benzamide] |
| 0.201 to 10 | < 0.05 | 0.201 to 10 | 0.05 to 0.2 | – | – | CN(C)C(=O)c1ccc(NC(=O)Nc2ccc(-c3nc(N4CCOCC4)c4ccc(-c5cncnc5)cc4n3)cc2F)cc1 [Example 84, 4-(3-(2-fluoro-4-(4-morpholino-7-(pyrimidin-5-yl)quinazolin-2-yl)phenyl)ureido)-N,N-dimethyl-benzamide] |
| 0.201 to 10 | < 0.05 | 0.201 to 10 | < 0.05 | – | – | CN(C)C(=O)c1ccc(NC(=O)Nc2ccc(-c3nc(N4CCOCC4)c4ncc(-c5cnn(C)c5)cc4n3)cn2)cc1 [Example 85, N,N-dimethyl-4-(3-(5-(7-(1-methyl-1H-pyrazol-4-yl)-4-morpholino-pyrido[3,2-d]pyrimidin-2-yl)pyridin-2-yl)ureido)-benzamide] |
| 0.201 to 10 | < 0.05 | 0.201 to 10 | 0.05 to 0.2 | – | – | CN(C)C(=O)c1ccc(NC(=O)Nc2ccc(-c3nc(N4CCOCC4)c4ccc(-c5ccnnc5)cc4n3)cc2)cc1 [Example 86, N,N-dimethyl-4-(3-(4-(4-morpholino-7-(pyridazin-4-yl)quinazolin-2-yl)phenyl)ureido)-benzamide] |
| < 0.1 | < 0.05 | < 0.1 | 0.05 to 0.2 | – | – | Cc1ccc(-c2cc3nc(-c4ccc(NC(=O)Nc5ccc(C(=O)N(C)C)cc5)cc4)nc(N4CCOCC4)c3cc2F)o1 [Example 87, 4-(3-(4-(6-fluoro-7-(5-methylfuran-2-yl)-4-morpholino-quinazolin-2-yl)phenyl)ureido)-N,N-dimethyl-benzamide] |
| 0.201 to 10 | < 0.05 | < 0.1 | 0.05 to 0.2 | – | – | CNC(=O)c1ccc(NC(=O)Nc2ccc(-c3nc(N4CCOCC4)c4ccc(-c5cncnc5)cc4n3)cc2)cc1 [Example 88, N-methyl-4-(3-(4-(4-morpholino-7-(pyrimidin-5-yl)quinazolin-2-yl)phenyl)ureido)-benzamide] |
